Here are results for 23 compounds from PubChem BioAssay AID434987 (Southern Research Specialized Biocontainment Screening …, 2010).

For the assay, the system named is M. tuberculosis H37Rv growth inhibition with meropenem. The experiment in a line: dose response, H37Rv, with and without meropenem (AID 434987).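 Also: growth over 7 days at 37 °C before Alamar Blue read on day 9.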
Where [1] appears, read: M. tuberculosis H37Rv growth inhibition, measured here: IC50 without meropenem.
Setting [2] is: M. tuberculosis H37Rv growth inhibition, measured here: IC90 without meropenem.
[3] abbreviates: measured here: IC90 with meropenem.

Active and inactive are the calls of the source. No rule for the calls is given here. Bounds are passed on as bounds.

On to `CCOC(=O)c1sc(NC(=O)CSc2n[nH]c(CC(C)C)n2)nc1C`, for which the IC50 was 19.3 µM (inactive). The IC50 under setting [1] stood at 46.5 µM. Moreover, the IC90 under setting [2] is above 100 µM. For the same compound, under setting [3], the 90% effect concentration (IC90) is above 100 µM.

Consider `CC(C)C1CC(CCNCc2ccc(N(C)C)cc2)(c2ccccc2)CCO1` (configuration not stated), for which the IC50 is 24.5 µM (inactive). Besides, the IC50 under setting [1] worked out at 29 µM. The IC90 under setting [2] was 40.7 µM. The compound further showed an IC90 under setting [3] of 26.9 µM.

`Cc1ccc(OCC(=O)Nc2ccc(-c3nc4ncccc4o3)cc2)c(C)c1`: the IC50 was > 100 µM (inactive). This compound also displayed an IC50 under setting [1] above 100 µM. Under setting [2], this compound registered an IC90 above 100 µM. Further, under setting [3], the IC90 was above 100 µM.

In the case of `COc1ccc(C(=O)Nc2ccc(C(=O)OCC(=O)c3ccccc3)cc2)cc1`, the IC50 is > 100 µM (inactive). The same compound gave an IC50 under setting [1] above 100 µM. Under setting [2], this compound displayed an IC90 above 100 µM. Besides, the IC90 under setting [3] was above 100 µM.

For `Cn1c(/C=C/c2ccc(Cl)cc2)c([N+](=O)[O-])c(=O)n(C)c1=O`, the IC50 is > 100 µM (inactive). The same compound gave an IC50 under setting [1] above 100 µM. In addition, the IC90 under setting [2] is above 100 µM. Moreover, the 90% effect concentration (IC90) under setting [3] was above 100 µM.

As to `COc1ccc(C2c3c(C)nn(-c4ccccc4)c3NC(=O)N2c2ccccc2)cc1` (configuration not stated), the IC50 is 17.4 µM. For the same compound, the IC50 under setting [1] was above 100 µM. Under setting [2], this compound displayed an IC90 above 100 µM. Further, under setting [3], the IC90 is above 100 µM.

As to `COCCOC(=O)c1c(C)oc2ccc(OC(=O)c3c(OC)cccc3OC)cc12`, the IC50 was > 100 µM (inactive). Under setting [1], the IC50 was above 100 µM. Also, the IC90 under setting [2] was above 100 µM. Under setting [3], this compound registered an IC90 above 100 µM.

In the case of `O=C(CSc1ncn[nH]1)Nc1cccc2ccccc12`, the IC50 was 29.6 µM (inactive). This compound also came in with an IC50 under setting [1] of 50.7 µM. Besides, under setting [2], the IC90 was above 100 µM. Further, under setting [3], the IC90 amounted to 65 µM.

With `O=C(Oc1c(-c2ccccc2)c(=O)n2c3c(cccc13)CC2)c1cccc([N+](=O)[O-])c1`, the IC50 was 3.97 µM. Moreover, the IC50 under setting [1] was 30.5 µM. Further, the IC90 under setting [2] was found to be 85.1 µM. The same compound gave an IC90 under setting [3] of 62.3 µM.

Consider `CCCCCn1c(=O)c(C(=O)NCc2ccncc2)c(O)c2ccccc21`, for which the IC50 was 35.3 µM (inactive). The compound also displayed an IC50 under setting [1] of 81.4 µM. The same compound showed an IC90 under setting [2] above 100 µM. Under setting [3], this compound registered an IC90 above 100 µM.

Consider `COc1ccc(CN(CCC#N)C(=S)NC(=O)c2ccccc2)cc1`, for which the IC50 was 10.6 µM. Further, under setting [1], the IC50 came out at 79.1 µM. Under setting [2], this compound returned a concentration for an effect of 90% (IC90) above 100 µM. This compound registered an IC90 under setting [3] above 100 µM.

With `CCn1cc(C(=O)O)c(=O)c2cc(F)c(N/N=C/c3ccccc3)cc21`, the IC50 was 22.8 µM (inactive). The same compound returned an IC50 under setting [1] of 36.5 µM. Besides, the IC90 under setting [2] was above 100 µM. Besides, the IC90 under setting [3] is above 100 µM.

Take `CCOC(=O)N1CCN(C(=O)CSc2nnc(COc3ccccc3)o2)CC1`: the IC50 was 7.33 µM. Further, the IC50 under setting [1] stood at 21.5 µM. This compound gave an IC90 under setting [2] of 72.9 µM. This compound also yielded an IC90 under setting [3] of 18.4 µM.

On to `S=c1[nH]cnc2scc(-c3ccc(Br)cc3)c12`, for which the IC50 was 28.8 µM. For the same compound, the IC50 under setting [1] stood at 98.8 µM. For the same compound, the IC90 under setting [2] is above 100 µM. In addition, under setting [3], the IC90 was above 100 µM.

For `FC(F)Oc1ccccc1C1CC(c2ccc(Br)s2)Nc2ncnn21` (configuration not stated), the IC50 is > 100 µM (inactive). The same compound showed an IC50 under setting [1] above 100 µM. Further, the IC90 under setting [2] was above 100 µM. For the same compound, the IC90 under setting [3] was above 100 µM.

For `CCCc1c(C)nc2c(OC)cccc2c1SCC(=O)O`, the IC50 is > 100 µM (inactive). This compound registered an IC50 under setting [1] above 100 µM. Under setting [2], the IC90 was above 100 µM. The compound further displayed an IC90 under setting [3] above 100 µM.

Consider `Cn1nnnc1SCC(=O)Nc1ccccc1[N+](=O)[O-]`, for which the IC50 is 28.8 µM. Under setting [1], this compound showed an IC50 of 71.9 µM. Under setting [2], this compound came in with an IC90 above 100 µM. The same compound registered an IC90 under setting [3] above 100 µM.

As for `COCCNC(C(=O)Nc1ccc(C)cc1[N+](=O)[O-])c1ccccc1` (configuration not stated), the IC50 is 17.2 µM. Under setting [1], this compound gave an IC50 of 49.1 µM. Under setting [2], the IC90 was above 100 µM. Besides, the IC90 under setting [3] is above 100 µM.

As for `CCN(CC)C(=O)CSc1nnc2nnc3cc(OC)ccc3n12`, the IC50 is 12 µM (inactive). The compound also registered an IC50 under setting [1] of 27.7 µM. For the same compound, the IC90 under setting [2] came to 51.7 µM. Under setting [3], this compound gave an IC90 of 13.4 µM.

As for `COc1ccccc1C(=O)Nc1sc2c(c1C(=O)NCc1ccco1)CCCC2`, the IC50 was > 100 µM (inactive). The IC50 under setting [1] is above 100 µM. Also, under setting [2], the IC90 is above 100 µM. Further, the IC90 under setting [3] is above 100 µM.

In the case of `O=C(NCc1ccc2c(c1)OCO2)C(=O)NC1CCCCC1`, the IC50 was > 100 µM (inactive). Under setting [1], this compound yielded an IC50 above 100 µM. Under setting [2], this compound returned an IC90 above 100 µM. The same compound returned an IC90 under setting [3] above 100 µM.

Regarding `Cc1c(-c2ccncc2)oc2ccc(Br)cc2c1=O`, the IC50 is > 100 µM (inactive). The IC50 under setting [1] is above 100 µM. The IC90 under setting [2] is above 100 µM. Under setting [3], this compound returned an IC90 above 100 µM.

In the case of `COc1cc(SC)ccc1C(=O)Nc1ccc(C)cc1C`, the IC50 is 38.3 µM. Moreover, the IC50 under setting [1] is above 100 µM. Moreover, the IC90 under setting [2] was above 100 µM. Besides, the IC90 under setting [3] is above 100 µM.
